In brackets after ≈: the same amount, converted by molar mass.
Test system: KB
Experiment: Cytotoxicity against human KB cells
Assay type: functional
Details: read-out: ED50 (the source's name)

| SMILES | EC50 [µg/mL] |
| --- | --- |
| COc1c(C)c(O)c(C(C)=O)c(OC)c1Cc1c(O)c(C(=O)C(C)C)c2c(c1OC)C=CC(C)(C)O2 | 5.5 (≈ 11 µM) |
| CCCC(=O)c1c2c(c(OC(C)=O)c(Cc3c(OC)c(C)c(OC(C)=O)c(C(C)=O)c3OC(C)=O)c1OC(C)=O)C=CC(C)(C)O2 | 2.55 (≈ 3.99 µM) |
| COc1c(C)c(OC(C)=O)c(C(C)=O)c(OC(C)=O)c1Cc1c(OC(C)=O)c2c(c(C(=O)C(C)C)c1OC(C)=O)OC(C)(C)C=C2 | 2.65 (≈ 4.15 µM) |
| CCCC(=O)c1c(O)c(Cc2c(OC)c(C)c(O)c(C(C)=O)c2OC)c(OC)c2c1OC(C)(C)C=C2 | 5.9 (≈ 11.8 µM) |
| CCCC(=O)c1c(O)c(Cc2c(O)c(C(C)=O)c(O)c(C)c2OC)c(O)c2c1OC(C)(C)C=C2 [BUTYRYLMALLOTOCHROMENE] | 3.3 (≈ 7.01 µM) |
| COc1c(C)c(O)c(C(C)=O)c(O)c1Cc1c(O)c2c(c(C(=O)C(C)C)c1O)OC(C)(C)C=C2 [ISOBUTYRYLMALLOTOCHROMENE] | 0.4 (≈ 0.85 µM) |

Source: ChEMBL document CHEMBL1151103, “Studies on cytotoxic constituents in pericarps of Mallotus japonicus, Part III” (1988)
